# Source: US11213590B2, “SSTR-targeted conjugates and particles and formulations thereof” (priority 2016, dated 2022)
# Values joined by “and” are separate entries in the source; they are usually repeats but may differ in a detail not shown here. Identical values can stand only once. Like-named read-outs stand apart in the source and are kept apart here.
# Columns and labels:
# [1] = tested on: NCI-H69; test: cells; format: cell-based, human; settings: for IC50: 5,000 cells/well
# Description: (§1) The purpose of this study was to determine the receptor-dependent inhibition of proliferation in vitro by the somatostatin targeting conjugate Conjugate 57 and determine the sensitivity to DM1 in the human SSTR2 expressing cancer cell lines: NCI-H69, NCI-H82, NCI-H727 and HCC-33. Cells were incubated with Conjugate 57 for 6 hours, in the presence or absence of an excess of octreotide, a somatostatin analogue. A three-fold serial dilution of Conjugate 57 was used for a total of ten concentration points. After treatment, cells were washed, incubated for an additional period of time, either 72 or 96 hours and proliferation was measured using the CellTiter-Glo® Luminescent Cell Viability Assay. The IC50 of Conjugate 57 was used to determine the inhibiting activity in proliferation assays. To determine DM1 sensitivity a similar method to the Conjugate 57 assay was employed with the additional incubation time points of 30 minutes, 1, 2, and 4 hours and the exclusion of the pre-treatment with octreotide. DM1 effect from the most to least sensitive cell line was determined to be: NCI-H69>HCC-33>NCI-H82>NCI-H727 (Table 5B). […] The addition of excess octreotide (100 μM) competes with Conjugate 57 for binding to the SSTR2 receptor. […] In the NCI-H69 experiments, pre-incubation with an excess of octreotide modestly diminished the activity of Conjugate 57 by 1.6 and 2.4 fold, depending on the assay conditions. In the HCC-33 cell line, activity of Conjugate 57 was 3.2 (±1.4) times higher when dosed alone, compared to when the cells were pre-incubated with octreotide. The small but measureable changes in Conjugate 57 activity in the presence of excess octreotide seen in the NCI-H69 and HCC-33 cell lines supports the receptor dependence of the Conjugate 57 antiproliferative effect seen in vitro. In summary, although all the cell lines tested in these experiments express the SSTR2 protein, they have different levels of sensitivity to the Conjugate 57 conjugate of which the DM1 sensitivity may be a contributing factor.
# [2] = tested on: NCI-H727; test: cells; format: cell-based, human; settings: for IC50: assay duration 72 h
# Description: as §1
# [3] = tested on: NCI-H82; test: cells; format: cell-based, human; settings: for IC50: assay duration 72 h
# Description: as §1
# [4] = tested on: HCC-33; test: Inhibition of proliferation, CellTiter-Glo, HCC-33; format: cell-based, human
# Description: as §1
# [5] = tested on: NCI-H69 xenograft; test: NCI-H69 lung xenograft efficacy, formulations and schedules; format: in vivo, mice; settings: for MTV (Mean Tumor Volume): total dose 2.0 mg/kg; for MTV (Mean Tumor Volume) / mice with complete tumor regression: Day 21
# Description: A further NCI-H69 study design included Conjugate 57 dosed iv at 1.0 mg/kg formulated in propylene glycol (PG), 1.0 mg/kg formulated in Solutol HS15, 0.5 mg/kg formulated in Solutol HS15 dosed twice per week, and 0.33 mg/kg formulated in Solutol HS15 dosed three times per week. A comparator group was dosed with SOC cisplatin dosed iv at 5.0 mg/kg once per week/etoposide dosed ip at 8.0 mg/kg three times per week over two weeks. A negative control vehicle was dosed with the Solutol HS 15 vehicle. All groups contained 10 animals.
# [6] = target: hERG (Homo sapiens, UniProt Q12809); test: hERG ion channel inhibition, IonWorks Quattro patch clamp; format: cell-based; settings: human; all concentrations tested (0.005 μM to 10 μM); 600 seconds incubation
# Description: (§2) The purpose of this study was to evaluate the potential of Conjugate 57 to prolong the QT interval via modulation of the ion channel, human Ether-á-go-go Related Gene (hERG). The potential inhibition of the ion channel activity by Conjugate 57 was tested using an IonWorks Quattro electrophysiological platform, which is an automated high-throughput patch clamp system. Conjugate 57 was tested at eight different concentrations, starting at a high concentration of 10 μM and a low concentration of 0.005 μM with a minimum of five replicates for each concentration. hERG currents were evoked by a three pulse protocol where voltage was first stepped to +40 mV for two seconds from a holding potential of −80 mV to inactivate hERG channels. The voltage is then stepped back to −50 mV for two seconds to evoke a tail current prior to returning to the holding potential for 1 second. The voltage protocol was applied (Pre), compounds added, incubated for 600 seconds, and the voltage protocol was applied a final time (Post) on the IonWorks Quattro.
# [7] = target: human Ether-á-go-go-Related Gene (hERG) ion channel (Homo sapiens, UniProt Q12809); test: as above; format: cell-based; settings: IonWorks Quattro; up to 10 μM
# Description: as §2
# [8] = Excipient solubility and compatibility testing; format: physicochemical
# Description: Conjugate 57 is an amphiphilic molecule and therefore tends to self-assemble into large structures. […] Commonly used parenteral surfactant excipients such as Polysorbate 80 (Tween 80) and Polyoxyl 15 Hydroxystearate (solutol, Kolliphor HS 15) were evaluated to re-assemble and stabilize Conjugate 57 into organized micelles. Conjugate 57 is compatible with non-ionic surfactants such as Tween 80 and solutol.
# [9] = target: SSTR1 (Homo sapiens, UniProt P30872); test: Affinity profile (half-maximal inhibitory concentration), SSTR1; format: binding
# Excerpt: (§3) DOTATE, also known as DOTA-TATE or DOTA-octreotate, comprises an amide of the acid DOTA, which connects a radionuclide and (Tyr3)-octreotate, a derivative of octreotide. DOTATOC, also known as edotreotide, SMT487, or (DOTA^0-Phe^1-Tyr^3)octreotide, is also an octreotide derivative which can be bound to radionuclides for diagnosis and treatment.
# [10] = target: SSTR3 (Homo sapiens, UniProt P32745); test: Affinity profile (half-maximal inhibitory concentration), SSTR3; format: binding
# Excerpt: as §3
# [11] = target: SSTR4 (Homo sapiens, UniProt P31391); test: Affinity profile (half-maximal inhibitory concentration), SSTR4; format: binding
# Excerpt: as §3
# [12] = 5,000 cells/well, excess octreotide (100 μM), read-out: Inhibition of Proliferation IC50 With Octreotide
# [13] = 5,000 cells/well, read-out: Inhibition of Proliferation IC50 Without Octreotide
# [14] = 10,000 cells/well, excess octreotide (100 μM), read-out: Inhibition of Proliferation IC50 With Octreotide
# [15] = 10,000 cells/well, read-out: Inhibition of Proliferation IC50 Without Octreotide
# Sequence of SSTR4 (P31391 whole entry): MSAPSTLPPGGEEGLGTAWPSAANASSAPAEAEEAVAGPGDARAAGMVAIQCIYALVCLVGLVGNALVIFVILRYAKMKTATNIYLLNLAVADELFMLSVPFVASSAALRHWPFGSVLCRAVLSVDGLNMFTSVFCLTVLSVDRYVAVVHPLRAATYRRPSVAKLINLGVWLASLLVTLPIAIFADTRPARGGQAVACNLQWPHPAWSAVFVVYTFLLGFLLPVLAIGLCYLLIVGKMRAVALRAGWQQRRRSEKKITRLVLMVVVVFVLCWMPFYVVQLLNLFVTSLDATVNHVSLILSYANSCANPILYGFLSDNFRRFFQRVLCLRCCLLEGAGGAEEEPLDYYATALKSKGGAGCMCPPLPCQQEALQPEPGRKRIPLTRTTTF
# Sequence of SSTR1 (P30872 whole entry): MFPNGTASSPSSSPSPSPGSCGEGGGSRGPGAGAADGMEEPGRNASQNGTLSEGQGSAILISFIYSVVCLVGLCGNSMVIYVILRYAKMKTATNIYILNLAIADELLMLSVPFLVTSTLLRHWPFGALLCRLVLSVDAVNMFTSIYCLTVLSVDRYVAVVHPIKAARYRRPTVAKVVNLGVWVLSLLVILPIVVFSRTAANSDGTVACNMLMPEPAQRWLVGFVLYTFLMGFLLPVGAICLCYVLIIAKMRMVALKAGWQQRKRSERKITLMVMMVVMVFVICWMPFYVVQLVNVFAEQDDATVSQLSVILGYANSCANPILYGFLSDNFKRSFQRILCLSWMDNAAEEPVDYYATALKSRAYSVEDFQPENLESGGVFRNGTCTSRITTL
# Sequence of SSTR3 (P32745 whole entry): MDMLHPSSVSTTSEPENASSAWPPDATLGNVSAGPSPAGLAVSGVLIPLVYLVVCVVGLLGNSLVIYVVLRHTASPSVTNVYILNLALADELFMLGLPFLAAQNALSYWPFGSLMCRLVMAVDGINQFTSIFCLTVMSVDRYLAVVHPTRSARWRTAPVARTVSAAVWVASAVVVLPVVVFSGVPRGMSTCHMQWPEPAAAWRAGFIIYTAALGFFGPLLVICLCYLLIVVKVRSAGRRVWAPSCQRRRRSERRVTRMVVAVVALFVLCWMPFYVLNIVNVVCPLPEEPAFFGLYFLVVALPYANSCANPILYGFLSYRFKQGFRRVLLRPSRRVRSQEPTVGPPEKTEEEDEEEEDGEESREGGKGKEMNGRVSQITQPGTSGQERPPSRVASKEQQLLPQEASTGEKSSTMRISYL
# Sequence of human Ether-á-go-go-Related Gene (hERG) ion channel (Q12809 whole entry): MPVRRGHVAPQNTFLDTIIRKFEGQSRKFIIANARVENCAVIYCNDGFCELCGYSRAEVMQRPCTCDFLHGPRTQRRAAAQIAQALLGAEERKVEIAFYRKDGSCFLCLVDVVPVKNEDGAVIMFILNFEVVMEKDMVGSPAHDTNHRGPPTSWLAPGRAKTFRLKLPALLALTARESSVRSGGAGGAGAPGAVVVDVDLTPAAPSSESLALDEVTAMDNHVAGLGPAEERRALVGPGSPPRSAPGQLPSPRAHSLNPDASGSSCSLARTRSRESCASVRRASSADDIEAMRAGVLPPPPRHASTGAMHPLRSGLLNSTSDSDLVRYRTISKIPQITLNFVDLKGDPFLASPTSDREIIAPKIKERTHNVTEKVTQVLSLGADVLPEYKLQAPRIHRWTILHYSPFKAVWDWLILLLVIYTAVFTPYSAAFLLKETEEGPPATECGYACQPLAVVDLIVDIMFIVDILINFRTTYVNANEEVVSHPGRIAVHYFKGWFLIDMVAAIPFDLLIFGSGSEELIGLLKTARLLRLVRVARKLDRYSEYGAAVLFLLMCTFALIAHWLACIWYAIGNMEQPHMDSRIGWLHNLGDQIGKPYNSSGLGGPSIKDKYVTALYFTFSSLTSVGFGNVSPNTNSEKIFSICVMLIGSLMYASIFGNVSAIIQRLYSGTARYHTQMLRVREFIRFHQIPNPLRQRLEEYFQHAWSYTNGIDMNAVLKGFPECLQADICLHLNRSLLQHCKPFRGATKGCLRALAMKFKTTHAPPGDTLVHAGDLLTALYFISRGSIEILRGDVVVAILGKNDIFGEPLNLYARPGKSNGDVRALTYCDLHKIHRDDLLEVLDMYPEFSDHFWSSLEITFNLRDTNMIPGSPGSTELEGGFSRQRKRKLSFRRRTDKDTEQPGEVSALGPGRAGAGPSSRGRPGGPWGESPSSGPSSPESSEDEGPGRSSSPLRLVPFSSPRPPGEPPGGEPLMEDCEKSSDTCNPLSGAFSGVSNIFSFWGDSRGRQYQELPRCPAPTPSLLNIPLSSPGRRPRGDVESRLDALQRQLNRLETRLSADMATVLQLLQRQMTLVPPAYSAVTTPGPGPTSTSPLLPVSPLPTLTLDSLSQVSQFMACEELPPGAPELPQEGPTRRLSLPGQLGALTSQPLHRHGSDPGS
# Sequence of hERG (Q12809 whole entry): as above
smiles,measurement,setting,value
COc1cc2cc(c1Cl)N(C)C(=O)C[C@H](OC(=O)[C@H](C)N(C)C(=O)CCSSC[C@H](NC(=O)[C@@H]1CSSC[C@H](NC(=O)[C@H](N)Cc3ccccc3)C(=O)N[C@@H](Cc3ccc(O)cc3)C(=O)N[C@H](Cc3c[nH]c4ccccc34)C(=O)N[C@@H](CCCCN)C(=O)N[C@@H]([C@@H](C)O)C(=O)N1)C(N)=O)[C@]1(C)O[C@H]1[C@H](C)[C@@H]1C[C@@](O)(NC(=O)O1)[C@H](OC)/C=C/C=C(\C)C2 [Conjugate 57],IC50,"[1]; assay duration 72 h, 6 h treatment, read-out: Inhibition of Proliferation IC50 Without Octreotide",108 nM
same,IC50,"[1]; assay duration 72 h, excess octreotide (100 μM), read-out: Inhibition of Proliferation IC50 With Octreotide",258 nM
same,IC50,"[1]; assay duration 96 h, 6 h treatment, read-out: Inhibition of Proliferation IC50 Without Octreotide",167 nM
same,IC50,"[1]; assay duration 96 h, excess octreotide (100 μM), read-out: Inhibition of Proliferation IC50 With Octreotide",271 nM
same,decrease of activity by pre-incubation with excess octreotide,[1]; depending on the assay conditions,1.6 fold and 2.4 fold
same,IC50,[2]; [12],810 nM
same,IC50,[2]; [13],3240 nM
same,IC50,[2]; [14],1900 nM
same,IC50,[2]; [15],2690 nM
same,activity in the presence of excess octreotide,[2]; octreotide 100 μM,not decreased
same,IC50,[3]; [12],128 nM
same,IC50,[3]; [13],106 nM
same,IC50,[3]; [14],1290 nM
same,IC50,[3]; [15],1050 nM
same,activity in the presence of excess octreotide,[3]; octreotide 100 μM,not decreased
same,activity dosed alone compared to pre-incubation with octreotide,[4],3.2 (±1.4) times higher
same,IC50,"[4]; 5,000 cells/well, assay duration 72 h (repeat experiments), read-out: Inhibition of Proliferation IC50 Without Octreotide",230 nM
same,MTV (Mean Tumor Volume),"[5]; 0.33 mg/kg iv in Solutol HS15, 3 doses per week",330 mm3
same,mice with complete tumor regression,[5]; 0.33 mg/kg three times per week in Solutol HS15,no mice having complete tumor regressions
same,MTV (Mean Tumor Volume),"[5]; 0.5 mg/kg iv in Solutol HS15, 2 doses per week",105 mm3
same,mice with complete tumor regression,"[5]; 0.5 mg/kg twice weekly in Solutol HS15, 10 animals",1/10
same,mice with complete tumor regression,"[5]; 1.0 mg/kg in PG, 10 animals",2/10
same,mice with complete tumor regression,"[5]; 1.0 mg/kg in Solutol HS15, 10 animals",3/10
same,MTV (Mean Tumor Volume),"[5]; 1.0 mg/kg iv in PG, 1 dose per week",178 mm3
same,MTV (Mean Tumor Volume),"[5]; 1.0 mg/kg iv in Solutol HS15, 1 dose per week",55 mm3
same,adverse effects with health observations,[5]; NCI-H69 xenograft,No adverse effects
same,weight loss,"[5]; NCI-H69 xenograft, all Conjugate 57 groups",No weight loss
same,inhibition at 600 seconds,[6],< 20%
same,hERG ion channel inhibition (in words),[7],did not inhibit
same,solubility,[8]; in saline,< 1000 µg/mL
same,excipient compatibility,[8]; non-ionic surfactants such as Tween 80 and solutol,compatible
same,excipient compatibility,"[8]; tocophersolan (TPGS), super refined PEG 300, PEG 400, ethanol, dextrose, or Pluronics F68",not compatible
same,IC50,[9],380 nM
same,IC50,[10],58 nM
same,IC50,[11],> 1000 nM
